From article PMC3586484, “Comparative Cytochrome P450 In Vitro Inhibition by Atypical Antipsychotic Drugs” (ISRN Pharmacology, 2013)
Blank lines part the entries; values can stand above or below the compound they belong to.

How the values were obtained:
[1] = reported therapeutic concentrations; ref Kirchherr and Kühn-Velten [18]; cited from earlier work
[2] = target: T1, CYP2D6 (Homo sapiens, UniProt P10635); conditions: cited from earlier work
[3] = test system: CYP3A; test: Inhibition of CYP3A-mediated midazolam 1′-hydroxylation in human liver microsomes; type: in vitro ADME; conditions: for Inhibitory potency ([inhibitor]/K i), CYP3A (1-hydroxylation): relative to the mean of reported therapeutic concentrations
Description: (§1) The mass spectrometer was run in the positive ion mode. Nitrogen as the drying gas was supplied at a flow of 10 L/minutes and at a temperature of 350°C.

[4] = target: T1, CYP2D6; test: biochemical
Excerpt: The composition of the mobile phase was 40% acetonitrile: 60% acetic acid (0.1%) (vol/vol).

[5] = target: CYP2C9 (Homo sapiens, UniProt P11712); test: Inhibition of CYP2C9-mediated diclofenac 4′-hydroxylation in human liver microsomes; conditions: 15 μM diclofenac, antipsychotics 0.05 to 50 μM, abaperidone up to 20 μM
Description: Inhibition studies on four different CYP isoform-specific substrates were carried out in human liver microsomes (Gentest Corporation, Woburn, MA). Assessed reactions were phenacetin O-deethylation for CYP1A2, (+/−)-bufuralol 1′-hydroxylation for CYP2D6, diclofenac 4′-hydroxylation for CYP2C9, and midazolam 1′- and 4′-hydroxylation for CYP3A. The different antipsychotics were dissolved in methanol and serially diluted with 100 mM tris buffer (pH = 7.5) to obtain final concentrations ranging from 0.05 to 50 μM. Abaperidone was an exception and was dissolved in hot water up to a maximum concentration of 20 μM.
Reactions were started by adding microsomal protein and the mix was then vortexed and incubated at 37°C for 30 min. The process was stopped by the addition of acetonitrile and incubation on ice during 10 minutes. Samples were then centrifuged at 10,000 g for 3 minutes, and the supernatant was taken for subsequent HPLC analysis. Control inhibition studies were carried out with prototypic inhibitors in increasing concentrations up to 20 μM, namely, furafylline (CYP1A2), quinidine (CYP2D6), sulphaphenazole (CYP2C9), and ketoconazole (CYP3A).
The effect of antipsychotics on the rate of CYP-catalyzed probe substrates was expressed as a percentage of the control activity with no antipsychotic present.

[6] = test system: CYP3A; test: Inhibition of CYP3A-mediated midazolam 4′-hydroxylation in human liver microsomes; type: in vitro ADME; conditions: abaperidone up to 20 μM
Description: as §1

T1 sequence (P10635 whole entry): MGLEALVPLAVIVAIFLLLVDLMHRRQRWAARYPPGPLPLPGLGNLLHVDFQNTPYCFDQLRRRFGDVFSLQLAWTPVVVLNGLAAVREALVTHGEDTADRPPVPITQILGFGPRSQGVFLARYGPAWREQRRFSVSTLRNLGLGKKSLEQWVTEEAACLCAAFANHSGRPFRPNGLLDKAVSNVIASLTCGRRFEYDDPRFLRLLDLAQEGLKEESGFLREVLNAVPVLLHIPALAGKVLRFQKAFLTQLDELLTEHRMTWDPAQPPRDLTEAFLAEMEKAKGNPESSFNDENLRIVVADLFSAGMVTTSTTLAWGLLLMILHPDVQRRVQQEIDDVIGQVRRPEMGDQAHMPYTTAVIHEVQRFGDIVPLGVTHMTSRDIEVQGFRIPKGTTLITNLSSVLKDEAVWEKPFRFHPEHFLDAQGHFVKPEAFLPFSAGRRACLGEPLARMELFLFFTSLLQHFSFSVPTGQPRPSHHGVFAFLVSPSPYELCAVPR
Sequence of CYP2C9 (P11712 whole entry): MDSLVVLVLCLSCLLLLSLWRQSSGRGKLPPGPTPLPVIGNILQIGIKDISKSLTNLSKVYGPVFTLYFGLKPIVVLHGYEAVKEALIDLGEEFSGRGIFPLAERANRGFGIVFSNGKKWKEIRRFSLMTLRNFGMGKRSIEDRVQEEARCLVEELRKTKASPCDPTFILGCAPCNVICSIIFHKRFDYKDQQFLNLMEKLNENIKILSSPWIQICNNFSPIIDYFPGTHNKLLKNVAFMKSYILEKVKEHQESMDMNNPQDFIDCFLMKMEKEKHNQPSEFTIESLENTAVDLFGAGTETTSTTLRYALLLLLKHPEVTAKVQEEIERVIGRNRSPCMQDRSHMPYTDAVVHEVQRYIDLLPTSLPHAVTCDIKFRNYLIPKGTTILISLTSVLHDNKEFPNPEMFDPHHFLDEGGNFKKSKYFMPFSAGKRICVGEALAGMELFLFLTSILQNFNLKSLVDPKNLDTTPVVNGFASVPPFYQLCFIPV

Compound: Cc1cc2c(s1)Nc1ccccc1N=C2N1CCN(C)CC1 [Olanzapine]
- Therapeutic range [1]: 0.06 to 0.25 µM

Compound: CN1CCN(C2=Nc3cc(Cl)ccc3Nc3ccccc32)CC1 [clozapine]
- Inhibition of CYP2D6 (in words, literature) [2]: inhibitory effect

Compound: O=C(CCCN1CCC(O)(c2ccc(Cl)cc2)CC1)c1ccc(F)cc1 [Haloperidol]
- Inhibition of CYP2D6 (in words, literature) [2]: inhibitory effect

More lines, main results first:

- Ki at 30 min ([3]; human, human liver microsomes, pH 7.5, probe midazolam (1′-hydroxylation), 10 μM, estimate obtained from IC50 as described in [17] (IC50-to-Ki tool), read-out: K i, CYP3A (1-hydroxylation)): 15 µM
- inhibition at 30 min ([3]; pH 7.5, probe midazolam (1′-hydroxylation), 10 μM, human liver microsomes, inhibitor 0.05 to 50 μM, read-out: I max (maximum inhibition), CYP3A (1-hydroxylation)): 58.2%
- IC50 at 30 min ([3]; pH 7.5, probe midazolam (1′-hydroxylation), human liver microsomes, 10 μM midazolam, 30 min 37°C): 30 µM
- Inhibitory potency ([inhibitor]/K i), CYP3A (1-hydroxylation) [3]: 0.0083
- IC50 [4]: 25.5 µM
- Ki [4]: 12.8 µM
Compound: COc1ccc2c(c1)N(C[C@H](C)CN(C)C)c1ccccc1S2 [Levomepromazine]
- Therapeutic range [1]: 0.05 to 0.2 µM

- Inhibitory potency ([inhibitor]/K i), CYP3A (1-hydroxylation) [3]: 0.0092
Compound: Cc1nc2n(c(=O)c1CCN1CCC(c3noc4cc(F)ccc34)CC1)CCCC2 [Risperidone]

- Inhibition of CYP3A midazolam 1′-hydroxylation (in words) ([3]; human liver microsomes, abaperidone up to 20 μM): did not cause a significant inhibition
- Inhibition of CYP2C9 (in words) [5]: did not cause a significant inhibition
- Inhibition of CYP3A midazolam 4′-hydroxylation (in words) [6]: did not cause a significant inhibition
Compound: O=c1c(CO)coc2cc(OCCCN3CCC(c4noc5cc(F)ccc45)CC3)ccc12 [abaperidone, 7-[3-[4-(6-fluoro-1,2-benzisoxazol-3-yl)-piperidin-1-yl]propoxy]-3-(hydroxymethyl)chromen-4-one]
